How the values were obtained:
[1] = molecular target: Serine/threonine-protein kinase D1 (Homo sapiens) (UniProt Q15139); assay: PRKD1 Invitrogen Lab (UK) kinase screen (BI); details: Compound concentration 1.0 uM
[2] = molecular target: Aurora kinase B (Homo sapiens) (UniProt Q96GD4); details: Compound concentration 1.0 uM
[3] = molecular target: Calcium/calmodulin-dependent protein kinase type II subunit alpha (Homo sapiens) (UniProt Q9UQM7); details: Compound concentration 1.0 uM
[4] = molecular target: Serine/threonine-protein kinase Nek4 (Homo sapiens) (UniProt P51957); details: Compound concentration 1.0 uM
[5] = molecular target: ATP-sensitive inward rectifier potassium channel 1 isoform X1 (Mesocricetus auratus) (UniProt A0A1U8CU73); assay: K+/KATP/HA Eurofins SafetyScreen44 (BI); details: Cricetinae; Compound concentration 10.0 uM
[6] = molecular target: Calpain-1 catalytic subunit (Homo sapiens) (UniProt P07384); details: Compound concentration 10.0 uM
[7] = molecular target: D(2) dopamine receptor (Homo sapiens) (UniProt P14416); details: Compound concentration 10.0 uM
[8] = molecular target: Serine/threonine-protein kinase NIM1 (Homo sapiens) (UniProt Q8IY84); details: Compound concentration 1.0 uM
[9] = molecular target: Phosphatidylinositol 3-kinase C2 domain-containing subunit gamma (Homo sapiens) (UniProt O75747); details: Compound concentration 1.0 uM
[10] = molecular target: Voltage-dependent L-type calcium channel subunit alpha-1C (CA+/PAASITE) (Rattus norvegicus, UniProt P22002); assay: CA+/PAASITE Eurofins SafetyScreen44 (BI); details: read-out: % Ctrl
[11] = molecular target: Alpha-1A adrenergic receptor (Homo sapiens) (UniProt P35348); details: Compound concentration 10.0 uM
[12] = molecular target: Glycogen synthase kinase-3 alpha (Homo sapiens) (UniProt P49840); details: Compound concentration 1.0 uM
[13] = molecular target: Serine/threonine-protein kinase DCLK1 (Homo sapiens) (UniProt O15075); details: Compound concentration 1.0 uM
[14] = molecular target: Serine/threonine-protein kinase Sgk2 (Homo sapiens) (UniProt Q9HBY8); details: Compound concentration 1.0 uM
[15] = molecular target: D(2) dopamine receptor (Homo sapiens) (UniProt P14416); details: Compound concentration 10.0 uM; remark: listed apart in the source
[16] = molecular target: Fibroblast growth factor receptor 3 (Homo sapiens) (UniProt P22607); details: Compound concentration 1.0 uM
[17] = molecular target: Tyrosine-protein kinase BTK (Homo sapiens) (UniProt Q06187)
[18] = molecular target: Nicotinic Acetylcholine Receptor (Homo sapiens) (UniProt P02708+P07510+P11230+P17787+P30926+P32297+P43681+Q07001+Q15822+Q9UGM1+Q15825+P30532+Q04844+P36544+Q9GZZ6+Q05901); details: Compound concentration 10.0 uM
[19] = molecular target: Ephrin type-A receptor 8 (Homo sapiens) (UniProt P29322); assay: EPHA8 Invitrogen Lab (UK) kinase screen (BI); details: Compound concentration 1.0 uM
[20] = molecular target: Serine/threonine-protein kinase Sgk3 (Homo sapiens) (UniProt Q96BR1); details: Compound concentration 1.0 uM
[21] = molecular target: 5-hydroxytryptamine receptor 1E (Homo sapiens) (UniProt P28566); details: Compound concentration 10.0 uM
[22] = molecular target: AP2-associated protein kinase 1 (Homo sapiens, UniProt Q2M2I8); assay: Dose response measurement (AAK1)
[23] = molecular target: Beta-1 adrenergic receptor (Homo sapiens) (UniProt P08588); details: Compound concentration 10.0 uM
[24] = molecular target: Megakaryocyte-associated tyrosine-protein kinase (Homo sapiens) (UniProt P42679); details: Compound concentration 1.0 uM
[25] = molecular target: Homeodomain-interacting protein kinase 1 (Homo sapiens) (UniProt Q86Z02); details: Compound concentration 1.0 uM
[26] = molecular target: Serine/threonine-protein kinase/endoribonuclease IRE1 (Homo sapiens) (UniProt O75460); details: Compound concentration 1.0 uM
[27] = molecular target: Dual specificity tyrosine-phosphorylation-regulated kinase 4 (Homo sapiens) (UniProt Q9NR20); details: Compound concentration 1.0 uM
[28] = molecular target: Tyrosine-protein kinase JAK1 (Homo sapiens) (UniProt P23458); details: Compound concentration 1.0 uM
[29] = molecular target: Ribosomal protein S6 kinase alpha-1 (Homo sapiens) (UniProt Q15418); assay: MAPKAPK1A DUNDEE kinase screen (BI); details: Rattus norvegicus; Compound concentration 10.0 uM
[30] = molecular target: Peripheral plasma membrane protein CASK (Homo sapiens) (UniProt O14936); assay: CASK Invitrogen Lab (UK) kinase screen (BI); details: Compound concentration 1.0 uM
[31] = molecular target: Ankyrin repeat and protein kinase domain-containing protein 1 (Homo sapiens) (UniProt Q8NFD2); details: Compound concentration 1.0 uM
[32] = molecular target: Mitogen-activated protein kinase 10 (Homo sapiens) (UniProt P53779); details: Compound concentration 1.0 uM
[33] = molecular target: Adrenergic receptor beta (Rattus norvegicus) (UniProt P18090+P10608+P26255)
[34] = molecular target: T1, Serine/threonine-protein kinase Chk1 (Homo sapiens) (UniProt O14757)
T1 sequence (whole entry): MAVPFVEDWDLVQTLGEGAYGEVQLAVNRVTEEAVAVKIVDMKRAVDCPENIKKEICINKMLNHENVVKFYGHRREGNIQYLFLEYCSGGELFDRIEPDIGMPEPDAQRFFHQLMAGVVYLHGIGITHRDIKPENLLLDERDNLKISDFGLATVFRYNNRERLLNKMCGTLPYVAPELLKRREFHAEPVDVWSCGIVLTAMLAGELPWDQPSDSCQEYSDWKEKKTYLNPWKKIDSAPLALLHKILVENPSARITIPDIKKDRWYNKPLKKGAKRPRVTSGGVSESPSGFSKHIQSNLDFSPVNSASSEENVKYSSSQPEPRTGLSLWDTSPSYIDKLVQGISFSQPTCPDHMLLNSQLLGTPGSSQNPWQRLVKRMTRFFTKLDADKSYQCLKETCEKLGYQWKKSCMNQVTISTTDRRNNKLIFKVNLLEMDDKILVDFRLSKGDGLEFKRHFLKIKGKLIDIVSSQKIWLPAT

[35] = molecular target: Serine/threonine-protein kinase Nek1 (Homo sapiens) (UniProt Q96PY6)
Serine/threonine-protein kinase Nek1 (Homo sapiens), sequence (Q96PY6 whole entry): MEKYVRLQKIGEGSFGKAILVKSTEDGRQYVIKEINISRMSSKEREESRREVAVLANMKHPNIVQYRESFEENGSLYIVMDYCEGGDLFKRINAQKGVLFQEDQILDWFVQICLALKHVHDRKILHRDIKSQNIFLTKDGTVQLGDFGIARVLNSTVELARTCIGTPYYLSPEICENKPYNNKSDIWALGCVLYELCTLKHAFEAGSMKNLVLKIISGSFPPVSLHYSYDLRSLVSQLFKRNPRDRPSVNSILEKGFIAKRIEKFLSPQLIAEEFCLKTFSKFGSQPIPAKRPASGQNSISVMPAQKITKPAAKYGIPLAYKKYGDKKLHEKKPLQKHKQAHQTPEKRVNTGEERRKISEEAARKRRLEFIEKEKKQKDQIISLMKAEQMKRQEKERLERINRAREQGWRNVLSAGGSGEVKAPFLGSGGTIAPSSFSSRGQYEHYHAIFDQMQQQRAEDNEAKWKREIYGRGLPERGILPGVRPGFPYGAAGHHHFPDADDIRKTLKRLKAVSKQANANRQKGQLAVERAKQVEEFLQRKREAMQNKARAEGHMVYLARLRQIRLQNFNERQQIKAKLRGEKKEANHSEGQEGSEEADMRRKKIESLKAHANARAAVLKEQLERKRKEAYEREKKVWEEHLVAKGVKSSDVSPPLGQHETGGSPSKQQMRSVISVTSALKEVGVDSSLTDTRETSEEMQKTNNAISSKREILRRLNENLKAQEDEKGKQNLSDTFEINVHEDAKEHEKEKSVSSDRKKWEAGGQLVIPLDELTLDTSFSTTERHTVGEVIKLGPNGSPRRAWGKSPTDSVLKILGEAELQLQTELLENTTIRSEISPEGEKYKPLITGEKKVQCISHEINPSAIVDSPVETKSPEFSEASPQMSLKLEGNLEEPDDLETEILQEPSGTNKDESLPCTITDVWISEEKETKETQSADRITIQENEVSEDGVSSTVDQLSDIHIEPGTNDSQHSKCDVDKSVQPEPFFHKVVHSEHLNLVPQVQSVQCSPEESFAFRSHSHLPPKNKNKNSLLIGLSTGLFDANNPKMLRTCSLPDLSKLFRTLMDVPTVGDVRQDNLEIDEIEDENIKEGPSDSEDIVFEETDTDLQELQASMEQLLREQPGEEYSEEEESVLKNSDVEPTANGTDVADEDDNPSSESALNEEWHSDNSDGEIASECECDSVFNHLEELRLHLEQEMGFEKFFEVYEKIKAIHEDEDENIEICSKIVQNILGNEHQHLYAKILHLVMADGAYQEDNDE

D(2) dopamine receptor (Homo sapiens), sequence (P14416 whole entry): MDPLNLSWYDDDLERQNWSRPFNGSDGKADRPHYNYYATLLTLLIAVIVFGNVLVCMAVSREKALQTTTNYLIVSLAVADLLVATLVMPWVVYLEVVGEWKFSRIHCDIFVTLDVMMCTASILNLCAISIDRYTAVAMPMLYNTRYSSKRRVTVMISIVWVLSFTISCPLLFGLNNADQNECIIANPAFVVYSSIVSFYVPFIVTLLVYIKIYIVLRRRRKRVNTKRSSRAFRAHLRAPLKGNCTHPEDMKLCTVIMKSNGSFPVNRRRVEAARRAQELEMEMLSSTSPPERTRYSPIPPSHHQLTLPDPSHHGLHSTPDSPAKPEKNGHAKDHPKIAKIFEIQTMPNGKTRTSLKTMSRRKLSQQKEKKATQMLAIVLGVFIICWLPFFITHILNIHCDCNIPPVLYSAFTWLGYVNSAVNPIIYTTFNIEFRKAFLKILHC
Tyrosine-protein kinase BTK (Homo sapiens), sequence (Q06187 whole entry): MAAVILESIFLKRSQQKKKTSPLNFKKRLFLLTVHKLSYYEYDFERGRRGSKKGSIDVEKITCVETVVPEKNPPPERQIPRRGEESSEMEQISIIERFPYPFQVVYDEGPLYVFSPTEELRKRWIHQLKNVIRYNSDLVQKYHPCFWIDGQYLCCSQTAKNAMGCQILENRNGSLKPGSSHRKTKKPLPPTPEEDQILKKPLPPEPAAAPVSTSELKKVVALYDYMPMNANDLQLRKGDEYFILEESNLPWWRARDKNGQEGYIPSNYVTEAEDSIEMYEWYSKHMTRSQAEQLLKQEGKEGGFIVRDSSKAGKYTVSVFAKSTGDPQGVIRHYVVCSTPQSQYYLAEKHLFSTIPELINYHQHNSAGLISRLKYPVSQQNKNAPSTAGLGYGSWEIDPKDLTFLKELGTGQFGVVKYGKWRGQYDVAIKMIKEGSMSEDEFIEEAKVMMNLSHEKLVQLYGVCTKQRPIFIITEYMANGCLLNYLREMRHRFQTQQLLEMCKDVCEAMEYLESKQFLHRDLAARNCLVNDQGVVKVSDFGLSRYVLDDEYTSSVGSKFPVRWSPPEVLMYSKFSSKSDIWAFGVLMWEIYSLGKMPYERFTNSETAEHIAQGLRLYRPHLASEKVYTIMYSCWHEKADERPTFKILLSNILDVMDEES
Voltage-dependent L-type calcium channel subunit alpha-1C (CA+/PAASITE), sequence (P22002 whole entry): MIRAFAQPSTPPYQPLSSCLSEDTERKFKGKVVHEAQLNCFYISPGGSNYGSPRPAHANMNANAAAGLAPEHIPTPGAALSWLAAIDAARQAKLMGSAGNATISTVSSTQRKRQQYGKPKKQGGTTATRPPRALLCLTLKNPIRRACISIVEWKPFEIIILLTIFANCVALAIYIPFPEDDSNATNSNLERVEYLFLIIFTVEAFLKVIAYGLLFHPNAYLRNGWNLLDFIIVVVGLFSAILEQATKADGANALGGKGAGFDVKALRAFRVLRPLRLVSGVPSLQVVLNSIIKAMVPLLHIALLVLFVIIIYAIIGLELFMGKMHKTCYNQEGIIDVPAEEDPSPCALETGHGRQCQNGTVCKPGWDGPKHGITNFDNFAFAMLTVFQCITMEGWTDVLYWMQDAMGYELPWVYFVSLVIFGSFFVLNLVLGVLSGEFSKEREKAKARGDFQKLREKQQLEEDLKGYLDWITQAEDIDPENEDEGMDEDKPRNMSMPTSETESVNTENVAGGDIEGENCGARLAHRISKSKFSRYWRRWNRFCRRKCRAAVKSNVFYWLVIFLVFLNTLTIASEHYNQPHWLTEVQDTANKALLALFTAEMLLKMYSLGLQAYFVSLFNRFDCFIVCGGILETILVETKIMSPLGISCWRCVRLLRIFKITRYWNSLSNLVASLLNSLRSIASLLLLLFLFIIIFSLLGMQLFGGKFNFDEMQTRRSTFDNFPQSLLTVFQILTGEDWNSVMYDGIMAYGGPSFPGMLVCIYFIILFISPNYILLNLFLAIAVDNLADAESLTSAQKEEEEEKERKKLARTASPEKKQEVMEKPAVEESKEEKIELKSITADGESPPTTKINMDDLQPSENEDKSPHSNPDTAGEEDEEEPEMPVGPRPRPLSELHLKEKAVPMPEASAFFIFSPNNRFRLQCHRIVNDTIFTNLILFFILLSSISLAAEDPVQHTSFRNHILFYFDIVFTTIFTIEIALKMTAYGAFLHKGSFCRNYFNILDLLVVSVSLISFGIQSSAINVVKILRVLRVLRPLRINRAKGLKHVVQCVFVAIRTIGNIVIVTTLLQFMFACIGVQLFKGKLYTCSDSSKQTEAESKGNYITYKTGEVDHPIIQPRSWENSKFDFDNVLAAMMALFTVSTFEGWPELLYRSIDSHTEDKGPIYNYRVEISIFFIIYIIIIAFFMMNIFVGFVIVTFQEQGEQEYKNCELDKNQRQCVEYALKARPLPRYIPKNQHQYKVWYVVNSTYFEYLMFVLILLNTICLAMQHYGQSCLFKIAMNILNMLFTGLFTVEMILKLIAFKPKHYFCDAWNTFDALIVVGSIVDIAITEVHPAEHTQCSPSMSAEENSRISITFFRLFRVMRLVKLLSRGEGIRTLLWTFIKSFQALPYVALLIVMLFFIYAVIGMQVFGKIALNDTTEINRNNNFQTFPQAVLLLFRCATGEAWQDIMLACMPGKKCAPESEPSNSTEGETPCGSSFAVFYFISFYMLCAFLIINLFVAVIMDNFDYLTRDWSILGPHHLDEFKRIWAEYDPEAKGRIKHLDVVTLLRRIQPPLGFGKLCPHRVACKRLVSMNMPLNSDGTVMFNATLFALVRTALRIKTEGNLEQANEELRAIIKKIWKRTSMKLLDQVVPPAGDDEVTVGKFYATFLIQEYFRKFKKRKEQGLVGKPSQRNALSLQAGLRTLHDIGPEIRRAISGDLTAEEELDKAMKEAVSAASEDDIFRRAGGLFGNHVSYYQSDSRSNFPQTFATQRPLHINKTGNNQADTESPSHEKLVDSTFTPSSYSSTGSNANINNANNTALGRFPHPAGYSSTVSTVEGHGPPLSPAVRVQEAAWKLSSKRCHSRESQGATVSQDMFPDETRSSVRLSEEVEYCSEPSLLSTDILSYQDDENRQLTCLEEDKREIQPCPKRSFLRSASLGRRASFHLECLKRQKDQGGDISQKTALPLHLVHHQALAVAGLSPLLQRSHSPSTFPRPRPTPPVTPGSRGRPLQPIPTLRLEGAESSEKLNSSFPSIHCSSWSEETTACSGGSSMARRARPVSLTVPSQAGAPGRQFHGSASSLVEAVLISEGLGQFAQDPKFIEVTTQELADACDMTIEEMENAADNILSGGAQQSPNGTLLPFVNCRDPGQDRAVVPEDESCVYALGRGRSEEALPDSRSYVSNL
Calcium/calmodulin-dependent protein kinase type II subunit alpha (Homo sapiens), sequence (Q9UQM7 whole entry): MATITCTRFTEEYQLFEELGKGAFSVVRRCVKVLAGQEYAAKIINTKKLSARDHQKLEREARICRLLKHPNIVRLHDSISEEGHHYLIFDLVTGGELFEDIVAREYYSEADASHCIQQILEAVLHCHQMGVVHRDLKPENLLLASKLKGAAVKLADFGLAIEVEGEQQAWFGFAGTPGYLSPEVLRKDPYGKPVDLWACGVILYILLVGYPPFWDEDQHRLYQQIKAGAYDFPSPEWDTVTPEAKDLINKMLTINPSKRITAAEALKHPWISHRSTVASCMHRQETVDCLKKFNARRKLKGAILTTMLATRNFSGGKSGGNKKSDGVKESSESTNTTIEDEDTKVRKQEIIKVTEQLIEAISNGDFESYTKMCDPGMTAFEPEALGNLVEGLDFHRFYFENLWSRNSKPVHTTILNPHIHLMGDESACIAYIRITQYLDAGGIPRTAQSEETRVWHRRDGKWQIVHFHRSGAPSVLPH

Compound: CCC(F)(F)c1cc(N2CCC(S(C)(=O)=O)CC2)nc2sc(C(N)=O)c(N)c12 [BI-605906]
- residual activity [1]: 83%
- residual activity [2]: 98%
- residual activity [3]: 100%
- residual activity [4]: 89%
- residual activity [5]: 110%
- residual activity [6]: 97%
- residual activity [7]: 100%
- residual activity [8]: 93%
- residual activity [9]: 90%
- activity at 10 µM ([10]; compound concentration 10 uM): 99% (not active)
- activity at 100 µM ([10]; compound concentration 100 uM): 70% (not active)
- inhibition [11]: 18.9%
- residual activity [12]: 99%
- residual activity [13]: 99%
- residual activity [14]: 99%
- inhibition [15]: 69.8%
- residual activity [16]: 96%
- residual activity ([17]; Compound concentration 1.0 uM): 85%
- residual activity ([17]; Compound concentration 10.0 uM): 96%
- residual activity [18]: 101%
- residual activity [19]: 85%
- residual activity [20]: 96%
- inhibition [21]: 1.69%
- IC50 [22]: 272 nM
- inhibition [23]: -8.38%
- residual activity [24]: 101%
- residual activity [25]: 101%
- residual activity [26]: 82%
- residual activity [27]: 97%
- residual activity [28]: 98%
- residual activity [29]: 77.5%
- residual activity [30]: 52%
- residual activity [31]: 95%
- residual activity [32]: 101%
- residual activity ([33]; Compound concentration 10.0 uM): 86%
- residual activity ([33]; Compound concentration 100.0 uM): 94%
- residual activity ([34]; Compound concentration 1.0 uM): 95%
- residual activity ([34]; Compound concentration 10.0 uM): 89%
- residual activity ([35]; Compound concentration 1.0 uM): 92%
- residual activity ([35]; Compound concentration 10.0 uM): 30%
